Data as given in PubChem BioAssay (NCI).
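Exposure lasted 48 hours, with cells grown in 96-well plates and compounds tested at five concentrations. GI50 = concentration required for 50% inhibition of growth. TGI: total growth inhibition.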

How the values were obtained:
Test in all cases: inhibition of tumour cell growth, NCI panel, 48 h
DMS 114 small cell lung = system: DMS 114 small cell lung
HOP-18 NSCLC = system: HOP-18 NSCLC
KM20L2 colon = system: KM20L2 colon
SNB-78 CNS = system: SNB-78 CNS
DU-145 prostate = system: DU-145 prostate
HS 578T breast = system: HS 578T breast
MCF7 breast = system: MCF7 breast
MDA-MB-231 breast = system: MDA-MB-231 breast
MDA-MB-435 = system: MDA-MB-435
PC-3 prostate = system: PC-3 prostate

| SMILES | TGI (DMS 114 small cell lung) [µM] | TGI (HOP-18 NSCLC) [µM] | TGI (KM20L2 colon) [µM] | TGI (SNB-78 CNS) [µM] | further results |
| --- | --- | --- | --- | --- | --- |
| CCOC(=O)C1=C(Nc2ccccc2)OC/C1=N\NC(=O)Cc1ccccc1 | > 50 | > 50 | > 50 | > 50 |  |
| CCOP(=O)(CCP(=O)(OCC)OCC)OCC.C[CH2][Sn]([Cl])([Cl])[CH2]C | 34.5 | 35 | > 100 | 41.8 | GI50 (DMS 114 small cell lung): 16.7 µM; GI50 (DU-145 prostate): > 100 µM; TGI (DU-145 prostate): > 100 µM; GI50 (HOP-18 NSCLC): 20.7 µM; GI50 (HS 578T breast): > 100 µM; TGI (HS 578T breast): > 100 µM; GI50 (KM20L2 colon): > 68.2 µM; GI50 (MCF7 breast): 21.6 µM; TGI (MCF7 breast): 44.4 µM; GI50 (MDA-MB-231 breast): 25 µM; TGI (MDA-MB-231 breast): 92.2 µM; GI50 (MDA-MB-435): > 100 µM; TGI (MDA-MB-435): > 100 µM; GI50 (PC-3 prostate): > 100 µM; TGI (PC-3 prostate): > 100 µM; GI50 (SNB-78 CNS): 17.2 µM |
| O=[N+]([O-])c1cccc(C2SCc3nc4ccccc4n32)c1 (stereo unspecified) | > 100 | > 100 | > 100 | > 100 |  |
| Cc1c2ccccc2c(C)c2c3c(ccc12)C(=O)C=CC3=O | 25.8 | > 69.3 | > 100 | 38 |  |
| COc1ccc(/C=C/C(=O)c2sc(N)nc2C)cc1 | > 100 | > 100 | > 100 | > 100 |  |
| O=C(c1cc(=O)c2ccc(O)cc2o1)c1ccc(Cl)cc1Cl | > 64 | > 100 | > 100 | > 100 |  |
| CC(C)c1cc(C(C)C)c(S(=O)(=O)NN)c(C(C)C)c1 | > 100 | > 100 | > 100 | > 100 |  |
| CCC(=O)C1=C(OC(C)=O)C2Cc3c(n(C)c4ccccc34)C(C1)N2C (stereo unspecified) | 58.7 | > 100 | > 100 | 56.4 |  |
| C/C(CN1C(=O)c2ccccc2C1=O)=N\NS(=O)(=O)c1ccccc1 | > 100 | > 100 | > 100 | > 100 |  |
| CC(C)(O)[C@@H]1CCC(C)([C@H]2[C@@H](O)CC3(C)C4CC(OC5OC(CO)C(O)C(O)C5O)C5C(C)(C)[C@@H](OC6OCC(O)C(O)C6O)CC[C@@]56C[C@@]46CC[C@]23C)O1 (stereo partly specified) | > 100 | > 100 | > 100 | > 100 |  |
